{"source": "paper PMC10517971", "about": "“An inverse agonist of orphan receptor GPR61 acts by a G protein-competitive allosteric mechanism” (Nature Communications, 2023)", "key": {"Nav1.5 (Peak)": {"molecular_target": "Nav1.5 (Peak) (Homo sapiens, UniProt Q14524)", "sequence (Q14524 whole entry)": "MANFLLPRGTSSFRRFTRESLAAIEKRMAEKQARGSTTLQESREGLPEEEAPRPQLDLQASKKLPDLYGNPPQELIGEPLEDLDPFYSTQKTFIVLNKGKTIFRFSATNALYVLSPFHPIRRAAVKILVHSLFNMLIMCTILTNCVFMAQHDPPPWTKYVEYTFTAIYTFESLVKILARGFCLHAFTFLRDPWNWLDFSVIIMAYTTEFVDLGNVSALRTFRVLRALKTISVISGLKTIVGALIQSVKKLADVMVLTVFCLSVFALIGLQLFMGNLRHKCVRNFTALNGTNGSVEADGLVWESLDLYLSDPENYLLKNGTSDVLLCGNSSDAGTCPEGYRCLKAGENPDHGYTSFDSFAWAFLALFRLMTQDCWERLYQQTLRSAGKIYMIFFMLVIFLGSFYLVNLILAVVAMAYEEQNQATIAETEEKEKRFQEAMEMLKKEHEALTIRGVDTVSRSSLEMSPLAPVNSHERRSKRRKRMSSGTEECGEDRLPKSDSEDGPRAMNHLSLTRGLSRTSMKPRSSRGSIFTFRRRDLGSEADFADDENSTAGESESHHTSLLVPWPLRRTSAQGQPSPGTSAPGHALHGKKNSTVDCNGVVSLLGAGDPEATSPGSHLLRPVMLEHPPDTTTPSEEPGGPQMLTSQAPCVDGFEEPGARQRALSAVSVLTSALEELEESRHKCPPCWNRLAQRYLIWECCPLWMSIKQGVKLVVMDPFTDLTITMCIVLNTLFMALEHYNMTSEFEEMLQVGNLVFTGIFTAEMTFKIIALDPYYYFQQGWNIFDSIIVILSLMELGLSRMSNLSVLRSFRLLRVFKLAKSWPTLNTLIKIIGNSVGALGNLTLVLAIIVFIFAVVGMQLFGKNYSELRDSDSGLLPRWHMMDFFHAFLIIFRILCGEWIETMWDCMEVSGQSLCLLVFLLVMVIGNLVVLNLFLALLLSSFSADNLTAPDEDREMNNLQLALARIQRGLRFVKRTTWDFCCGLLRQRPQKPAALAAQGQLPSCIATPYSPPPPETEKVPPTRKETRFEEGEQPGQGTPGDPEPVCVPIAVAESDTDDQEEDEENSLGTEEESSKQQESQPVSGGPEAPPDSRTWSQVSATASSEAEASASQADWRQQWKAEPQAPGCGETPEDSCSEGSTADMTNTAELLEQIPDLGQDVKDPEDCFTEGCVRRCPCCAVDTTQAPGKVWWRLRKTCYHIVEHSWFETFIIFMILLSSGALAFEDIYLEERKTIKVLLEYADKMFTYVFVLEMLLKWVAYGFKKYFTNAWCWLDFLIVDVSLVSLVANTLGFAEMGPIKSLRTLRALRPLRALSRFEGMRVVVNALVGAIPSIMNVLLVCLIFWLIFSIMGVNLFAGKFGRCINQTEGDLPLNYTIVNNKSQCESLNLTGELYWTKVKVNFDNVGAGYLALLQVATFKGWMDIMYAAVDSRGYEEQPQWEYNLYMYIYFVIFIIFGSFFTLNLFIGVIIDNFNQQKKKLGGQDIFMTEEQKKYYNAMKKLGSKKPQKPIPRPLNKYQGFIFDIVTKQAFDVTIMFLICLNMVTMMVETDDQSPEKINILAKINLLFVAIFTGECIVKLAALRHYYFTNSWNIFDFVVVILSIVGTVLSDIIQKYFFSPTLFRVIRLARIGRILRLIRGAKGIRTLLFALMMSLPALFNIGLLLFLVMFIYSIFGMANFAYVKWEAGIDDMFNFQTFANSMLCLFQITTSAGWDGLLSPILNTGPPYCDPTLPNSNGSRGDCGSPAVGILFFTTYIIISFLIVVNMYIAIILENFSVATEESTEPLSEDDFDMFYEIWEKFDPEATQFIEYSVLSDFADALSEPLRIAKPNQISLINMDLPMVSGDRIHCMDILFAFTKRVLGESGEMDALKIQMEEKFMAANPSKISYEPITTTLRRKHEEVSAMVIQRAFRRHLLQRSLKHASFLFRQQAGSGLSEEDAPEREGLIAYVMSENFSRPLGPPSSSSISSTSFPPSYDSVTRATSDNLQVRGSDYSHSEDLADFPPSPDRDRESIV", "experiment": "Nav1.5 (peak current) ion channel profiling, Qube384 automated patch clamp (standard and extended protocol)", "type": "cell-based", "from_the_text": "105 hERG, Nav1.5 and Cav1.2 Ion Channel Profiling\n106 Ionic curr ents wer e evalu ated in the whole-cell con figuration using the Qube384 automated planar\n107 patch clamp platform (Sophion Bioscience A/S, Ballerup, Denmark). […]\n116 HEPES, 2 Na2ATP, pH 7.2, 305 mOsM. […]\n126 Nav1.5 current, from a holding potential of - 80 mV, a 200 ms prepulse to - 120 mV was used to\n127 homogenize channel inactivation, followed by a 40 ms step to a test potential of - 15 mV.\n128 Membrane potential was further depolarized to +40 mV for 200 ms to completely inactivate the\n129 peak Nav1.5 current, followed by a ramp from +40 mV to - 80 mV (-1.2 mV/ms). This voltage\n130 pattern was repeated at 0.1 Hz, with peak Nav1.5 defined as the maximum current during the step\n131 to - 15 mV. All studies were conducted at 23° C.\n132 Compounds were dissol ved and initially diluted in dimethyl sulfoxide (DMSO), with a final\n133 dilution in external solution to generate final working concent rations. The final DMSO\n134 concentration in all experiments was 0.33% (v/v).\n135 For all protocols three vehicle periods each lasting 5 minutes were applied to establish a stable\n136 baseline. For the standard protocol this was followed by the addition of increasing concentrations\n137 of test compound, with each exposure lasting 5 minutes. For the “extended” protocol following\n138 the three- vehi cle additional each well subsequentl y received a single concentration of compound.\n139 This application was repeated three times for each well, via a flowthrough addition where the\n140 solution was replaced wi th the same compound concentration with each addition. Each exposure\n142 Patch clamp data were analyzed using Assay Software 6.4.72 (Sophion Bioscience A/S, Ballerup,\n143 Denmark). Current amplitudes were determined by averaging the last 4 currents under each test\n144 condition. The percentage inhibition of each compound was determined by taking the ratio of\n145 current amplitude measured in the presence of various concentrations of the test compound\n146 (ICompound) versus the vehicle control current (IVehicle):\n148 A dose-response curve was generat ed and fit to the Hill equation by the Sophion Analyzer software\n149 to determine an IC50 value for each compound. The minimum and the slope of the fit were free\n150 fitted, with the top being fixed to 100% inhibition.\n151 GABA Patch Clamp Assay\n152 Compound effects on the human GABAA recepto r (α1β2γ2), stably express ed in human embryonic\n153 kidney (HEK) cells, were examined in three modes of action: agonist, antagonist and positive\n154 allosteric modulation (PAM) modes. Chloride currents evoked by the activation of the GABAA\n155 recepto r wer e reco rded in the whole- cell patch clamp configuration with the automated Qube384®\n156 platform (Sophion Bioscience A/S, Baltorpvej, Denmark). […]"}, "Human PDE10A1": {"molecular_target": "Human PDE10A1 (Homo sapiens, UniProt Q9Y233)", "sequence (Q9Y233 1-779 isoform Q9Y233-1)": "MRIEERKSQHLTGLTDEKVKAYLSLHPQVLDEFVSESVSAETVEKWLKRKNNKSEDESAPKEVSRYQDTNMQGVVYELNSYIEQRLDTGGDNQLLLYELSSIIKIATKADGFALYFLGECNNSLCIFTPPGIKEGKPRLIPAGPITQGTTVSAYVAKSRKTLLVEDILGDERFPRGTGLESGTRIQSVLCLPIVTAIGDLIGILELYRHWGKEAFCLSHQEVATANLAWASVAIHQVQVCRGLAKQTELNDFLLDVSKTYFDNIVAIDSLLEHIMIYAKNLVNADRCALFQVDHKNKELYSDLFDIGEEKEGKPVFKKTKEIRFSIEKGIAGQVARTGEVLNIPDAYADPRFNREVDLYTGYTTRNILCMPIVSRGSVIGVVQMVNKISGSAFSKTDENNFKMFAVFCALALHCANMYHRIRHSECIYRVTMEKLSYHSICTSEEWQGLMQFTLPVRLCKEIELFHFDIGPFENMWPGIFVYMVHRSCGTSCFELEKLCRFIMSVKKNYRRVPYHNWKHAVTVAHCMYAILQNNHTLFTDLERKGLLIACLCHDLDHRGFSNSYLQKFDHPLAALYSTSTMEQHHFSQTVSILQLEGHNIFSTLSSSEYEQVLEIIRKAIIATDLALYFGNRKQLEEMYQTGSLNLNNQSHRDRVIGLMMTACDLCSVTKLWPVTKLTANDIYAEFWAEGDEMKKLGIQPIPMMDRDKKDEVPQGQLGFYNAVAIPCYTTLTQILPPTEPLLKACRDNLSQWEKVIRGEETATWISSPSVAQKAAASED", "experiment": "Phosphodiesterase Assay (SPA)", "type": "biochemical"}}, "note": "Read-outs that look alike come from different tables or passages of the source.", "data": [{"smiles": "CCOc1cc(C)nc(N(CCOC)S(=O)(=O)c2ccc(NCc3c(F)cncc3F)nc2OC)n1", "note": "[Compound 1]", "values": [{"measurement": "IC50", "setting": "Nav1.5 (Peak)", "value": "> 100000", "unit": "nM"}, {"measurement": "IC50", "setting": "Nav1.5 (Peak); read-out: Ion Channel Extended Protocol IC50 (nM), Period 1st, Nav1.5 (Peak), extended protocol, 1st period", "value": "> 100000", "unit": "nM"}, {"measurement": "IC50", "setting": "Nav1.5 (Peak); read-out: Ion Channel Extended Protocol IC50 (nM), Period 2nd, Nav1.5 (Peak), extended protocol, 2nd period", "value": "> 100000", "unit": "nM"}, {"measurement": "IC50", "setting": "Nav1.5 (Peak); read-out: Ion Channel Extended Protocol IC50 (nM), Period 3rd, Nav1.5 (Peak), extended protocol, 3rd period", "value": "> 100000", "unit": "nM"}, {"measurement": "IC50", "setting": "Human PDE10A1", "value": "> 40", "unit": "µM"}]}]}
